Tested on: NRAS mutant melanoma cells
Test: Telomere length, Southern blotting of TRF
Type: cell-based, human
Settings: 1 μM for 14 days
Description: FIGS. 2a-h. […] (FIGS. 2a-c) NRASmut melanoma cells (FIG. 2a), BRAF-V600E/NRAS mutant cells derived from melanoma patients resistant to BRAF/MEK inhibitors (FIG. 2b), or non-transformed melanocytes and fibroblasts (FIG. 2c) were treated with 6-thio-dG for 7 days. Cell viability was measured by Alamar Blue assay and calculated relative to DMSO-treated cells. (FIG. 2d) NRASmut melanoma cells and non-transformed human fibroblasts were treated with 1 or 5 μM 6-thio-dG for 7 or 14 days. Cell death was assessed by PSVUe staining. Percent of apoptotic cells is shown. (FIG. 2e) Cells were treated with DMSO or 1 μM 6-thio-dG for 14 days and telomere length was assessed by Southern blotting of TRF. Mean TRF length expressed as kilobase pairs is indicated at the bottom. (FIGS. 2f-g) Cells were treated with 1 μM 6-thio-dG for 7 days. (FIG. 2f) ROS production was measured by H2DCFDA fluorescence and normalized to MSO treated cells. (FIG. 2g) DNA damage was assessed by γH2AX staining. Data represent average from three independent experiments±SEM. *p<0.05; **p<0.01; ***p<0.005 in unpaired Student's t-test. […] Tumor volume was measured and average tumor volume (n=4)±SEM was plotted vs. time.
Telomere length assay. […] The images were analyzed with Phosphorimager, visualized by Typhoon 9410 Imager (GE Healthcare), and processed with ImageQuant 5.2 software (Molecular Dynamics).

## Nc1nc2c(ncn2[C@H]2C[C@H](O)[C@@H](CO)O2)c(=S)[nH]1 [6-thio-dG, 6-thio-2′-deoxy-guanosine]
  telomere length (mean TRF): without evidence for significant telomere shortening

Source: patent publication US20210113602A1, “USE OF 6-THIO-2'-DEOXYGUANOSINE (6-THIO-dG) TO TREAT MELANOMA” (The Board of Regents of the University of Texas System, priority 2018, published 2021)
